Consider 15 compounds from patent US12564638B2 (SHANGHAITECH UNIVERSITY, priority 2019, dated 2026).

Like-named read-outs stand apart in the source and are kept apart here.

The subject of assay [1] is HCC827 cells (EGFR Exon19 del, non-small cell lung cancer cells). Nature of the assay: Cell viability assay (WST/CCK8), HCC827 cells. The conditions noted are these: Homo sapiens, HCC827, 72 h, HCC827 (Exon19 Del), 72 hours, read-out: IC50 (half inhibitory concentration). In kind it is cell-based. The procedure, abridged:
(§1)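 Cells seeded at 3 000/well in RPMI1640 complete medium, dosed next day with compounds (top 10 μM, 3-fold, 10 points) for 72 h. Viability read with WST (CCK8) reagent; DMSO as negative control, EGFR TKIs as positive controls; IC50 determined.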

Assay [2] concerns PC9 cells (EGFR Exon 19 del, non-small cell lung cancer cells). Nature of the assay: Cell viability assay (WST/CCK8), PC9 cells. In kind it is cell-based. The conditions noted are these: Homo sapiens, PC-9, PC9 (Exon19 Del), 72 hours, read-out: IC50 (half inhibitory concentration). The method, boiled down:
as §1

For the compound `COc1cc2ncnc(Nc3ccc(F)c(Cl)c3)c2cc1NC(=O)/C=C/CN1CCN(C(=O)CCC(=O)N[C@H](C(=O)N2C[C@H](O)C[C@H]2C(=O)NCc2ccc(-c3scnc3C)cc2)C(C)(C)C)CC1` [SIAIS249041, (2S,4R)-1-((S)-2-(4-(4-((E)-4-((4-((3-chloro-4-fluorophenyl)amino)-7-methoxyquinazolin-6-yl)amino)-4-oxobut-2-en-1-yl)piperazin-1-yl)-4-oxobutanamido)-3,3-dimethylbutanoyl)-4-hydroxy-N-(4-(4-methylthiazol-5-yl)benzyl)pyrrolidine-2-carboxamide], the IC50 stood at 38.3 nM in assay [1] (WST (CCK8)) and 99 nM in assay [2] (WST (CCK8)).
For `COc1cc2ncnc(Nc3ccc(F)c(Cl)c3)c2cc1NC(=O)/C=C/CN1CCN(C(=O)CCOCCNc2cccc3c2C(=O)N(C2CCC(=O)NC2=O)C3=O)CC1` (stereo not drawn) [SIAIS249046, (E)-N-(4-((3-chloro-4-fluorophenyl)amino)-7-methoxyquinazolin-6-yl)-4-(4-(3-(2-((2-(2,6-dioxopiperidin-3-yl)-1,3-dioxoisoindolin-4-yl)amino)ethoxy)propanoyl)piperazin-1-yl)but-2-enamide], in that order: 3.4 nM and 57 nM.
For `COc1cc2ncnc(Nc3ccc(F)c(Cl)c3)c2cc1NC(=O)/C=C/CN1CCN(C(=O)COCCOCCOCCSc2cccc3c2C(=O)N(C2CCC(=O)NC2=O)C3=O)CC1` (stereo not drawn) [SIAIS262006, (E)-N-(4-((3-chloro-4-fluorophenyl)amino)-7-methoxyquinazolin-6-yl)-4-(4-(2-(2-(2-(2-((2-(2,6-dioxopiperidin-3-yl)-1,3-dioxoisoindolin-4-yl)thio)ethoxy)ethoxy)ethoxy)acetyl)piperazin-1-yl)but-2-enamide], in that order: 35.5 nM and 73 nM.
For `COc1cc2ncnc(Nc3ccc(F)c(Cl)c3)c2cc1NC(=O)/C=C/CN1CCN(C(=O)COCCSc2cccc3c2CN(C2CCC(=O)NC2=O)C3=O)CC1` (stereo not drawn) [SIAIS219193, (E)-N-(4-((3-chloro-4-fluorophenyl)amino)-7-methoxyquinazolin-6-yl)-4-(4-(2-(2-((2-(2,6-dioxopiperidin-3-yl)-1-oxoisoindolin-4-yl)thio)ethoxy)acetyl)piperazin-1-yl)but-2-enamide], in that order: 2.2 nM and 43.6 nM.
`COc1cc2ncnc(Nc3ccc(F)c(Cl)c3)c2cc1NC(=O)/C=C/CN1CCC(N2CCN(CCCCCCOc3cccc4c3CN(C3CCC(=O)NC3=O)C4=O)CC2)CC1` (stereo not drawn) [SIAIS337029, (E)-N-(4-((3-chloro-4-fluorophenyl)amino)-7-methoxyquinazolin-6-yl)-4-(4-(4-(6-((2-(2,6-dioxopiperidin-3-yl)-1-oxoisoindolin-4-yl)oxy)hexyl)piperazin-1-yl)piperidin-1-yl)but-2-enamide]: the results for the IC50 in assay [1] (WST (CCK8)) and in assay [2] (WST (CCK8)) were 0.3 nM and 28.4 nM, respectively.
Consider `COc1cc2ncnc(Nc3ccc(F)c(Cl)c3)c2cc1NC(=O)/C=C/CN1CCC(N2CCN(CCCC#Cc3cccc4c3CN(C3CCC(=O)NC3=O)C4=O)CC2)CC1` (stereo not drawn) [SIAIS262050, (E)-N-(4-((3-chloro-4-fluorophenyl)amino)-7-methoxyquinazolin-6-yl)-4-(4-(4-(5-(2-(2,6-dioxopiperidin-3-yl)-1-oxoisoindolin-4-yl)pent-4-yn-1-yl)piperazin-1-yl)piperidin-1-yl)but-2-enamide], for which the IC50 in assay [1] (WST (CCK8)) worked out at 0.8 nM; in assay [2] (WST (CCK8)), 9.9 nM.
`COc1cc2ncnc(Nc3ccc(F)c(Cl)c3)c2cc1NC(=O)/C=C/CN1CCC(N2CCN(CCCCCCCCCCSc3cccc4c3CN(C3CCC(=O)NC3=O)C4=O)CC2)CC1` (stereo not drawn) [SIAIS337039, (E)-N-(4-((3-chloro-4-fluorophenyl)amino)-7-methoxyquinazolin-6-yl)-4-(4-(4-(10-((2-(2,6-dioxopiperidin-3-yl)-1-oxoisoindolin-4-yl)thio)decyl)piperazin-1-yl)piperidin-1-yl)but-2-enamide]: the results for the IC50 in assay [1] (WST (CCK8)) and in assay [2] (WST (CCK8)) were 5.7 nM and 19.7 nM, respectively.
For `COc1cc2ncnc(Nc3ccc(F)c(Cl)c3)c2cc1NC(=O)/C=C/CN1CCC(N2CCN(C(=O)CCc3ccc(CCC(=O)N[C@H](C(=O)N4C[C@H](O)C[C@H]4C(=O)NCc4ccc(-c5scnc5C)cc4)C(C)(C)C)cc3)CC2)CC1` [SIAIS249106, (2S,4R)-1-((S)-2-(3-(4-(3-(4-(1-((E)-4-((4-((3-chloro-4-fluorophenyl)amino)-7-methoxyquinazolin-6-yl)amino)-4-oxobut-2-en-1-yl)piperidin-4-yl)piperazin-1-yl)-3-oxopropyl)phenyl)propanamido)-3,3-dimethylbutanoyl)-4-hydroxy-N-(4-(4-methylthiazol-5-yl)benzyl)pyrrolidine-2-carboxamide], in that order: 16.2 nM and 50.1 nM.
For `COc1cc2ncnc(Nc3ccc(F)c(Cl)c3)c2cc1NC(=O)/C=C/CN1CCN(C(=O)CCCCCSc2cccc3c2C(=O)N(C2CCC(=O)NC2=O)C3=O)CC1` (stereo not drawn) [SIAIS249038, (E)-N-(4-((3-chloro-4-fluorophenyl)amino)-7-methoxyquinazolin-6-yl)-4-(4-(6-((2-(2,6-dioxopiperidin-3-yl)-1,3-dioxoisoindolin-4-yl)thio)hexanoyl)piperazin-1-yl)but-2-enamide], in that order: 4.7 nM and 22.9 nM.
For `COc1cc2ncnc(Nc3ccc(F)c(Cl)c3)c2cc1NC(=O)/C=C/CN1CCN(C(=O)CCCCNc2cccc3c2C(=O)N(C2CCC(=O)NC2=O)C3=O)CC1` (stereo not drawn) [SIAIS249048, (E)-N-(4-((3-chloro-4-fluorophenyl)amino)-7-methoxyquinazolin-6-yl)-4-(4-(5-((2-(2,6-dioxopiperidin-3-yl)-1,3-dioxoisoindolin-4-yl)amino)pentanoyl)piperazin-1-yl)but-2-enamide], in that order: 3.2 nM and 10.3 nM.
For `COc1cc2ncnc(Nc3ccc(F)c(Cl)c3)c2cc1NC(=O)/C=C/CN1CCC(N2CCN(CCCCC#Cc3cccc4c3CN(C3CCC(=O)NC3=O)C4=O)CC2)CC1` (stereo not drawn) [SIAIS262051, (E)-N-(4-((3-chloro-4-fluorophenyl)amino)-7-methoxyquinazolin-6-yl)-4-(4-(4-(6-(2-(2,6-dioxopiperidin-3-yl)-1-oxoisoindolin-4-yl)hex-5-yn-1-yl)piperazin-1-yl)piperidin-1-yl)but-2-enamide], the IC50 in assay [1] (WST (CCK8)) and in assay [2] (WST (CCK8)) was 2.5 nM each time.
On to `COc1cc2ncnc(Nc3ccc(F)c(Cl)c3)c2cc1NC(=O)/C=C/CN1CCC(N2CCN(C(=O)CCCCOc3cccc4c3CN(C3CCC(=O)NC3=O)C4=O)CC2)CC1` (stereo not drawn) [SIAIS337026, (E)-N-(4-((3-chloro-4-fluorophenyl)amino)-7-methoxyquinazolin-6-yl)-4-(4-(4-(5-((2-(2,6-dioxopiperidin-3-yl)-1-oxoisoindolin-4-yl)oxy)pentanoyl)piperazin-1-yl)piperidin-1-yl)but-2-enamide], for which the IC50 is 0.5 nM in assay [1] (WST (CCK8)) and 8.6 nM in assay [2] (WST (CCK8)).
For `COc1cc2ncnc(Nc3ccc(F)c(Cl)c3)c2cc1NC(=O)/C=C/CN1CCC(N2CCN(CCCCCCSc3cccc4c3CN(C3CCC(=O)NC3=O)C4=O)CC2)CC1` (stereo not drawn) [SIAIS262065, (E)-N-(4-((3-chloro-4-fluorophenyl)amino)-7-methoxyquinazolin-6-yl)-4-(4-(4-(6-((2-(2,6-dioxopiperidin-3-yl)-1-oxoisoindolin-4-yl)thio)hexyl)piperazin-1-yl)piperidin-1-yl)but-2-enamide], in that order: 3.1 nM and 185 nM.
Take `COc1cc2ncnc(Nc3ccc(F)c(Cl)c3)c2cc1NC(=O)/C=C/CN1CCN(C(=O)CCCCCCSc2cccc3c2CN(C2CCC(=O)NC2=O)C3=O)CC1` (stereo not drawn) [SIAIS219190, (E)-N-(4-((3-chloro-4-fluorophenyl)amino)-7-methoxyquinazolin-6-yl)-4-(4-(7-((2-(2,6-dioxopiperidin-3-yl)-1-oxoisoindolin-4-yl)thio)heptanoyl)piperazin-1-yl)but-2-enamide]: the IC50 in assay [1] (WST (CCK8)) came out at 18.6 nM; in assay [2] (WST (CCK8)), 7.2 nM.
On to `COc1cc2ncnc(Nc3ccc(F)c(Cl)c3)c2cc1OCCCN1CCN(C(=O)COCCOCCOCCSc2cccc3c2C(=O)N(C2CCC(=O)NC2=O)C3=O)CC1` (stereo not drawn) [SIAIS184169, 4-((2-(2-(2-(2-(4-(3-((4-((3-chloro-4-fluorophenyl)amino)-7-methoxyquinazolin-6-yl)oxy)propyl)piperazin-1-yl)-2-oxoethoxy)ethoxy)ethoxy)ethyl)thio)-2-(2,6-dioxopiperidin-3-yl)isoindoline-1,3-dione], for which the IC50 is 22 nM in assay [1] (Table 4, gefitinib and sapitinib-based compounds, WST); 318 nM in assay [2] (Table 4, gefitinib-based compounds, WST).
